In ChEMBL document CHEMBL1201862, “PubChem BioAssay data set” (2004):
Where a name gives a salt, the structure may show the parent alone. Activity calls are given as the source filed them.

What was measured:
Vero = experiment: cells; type: functional; details: Chlorocebus sabaeus
Cytochrome P450 3A4 = Cytochrome P450 3A4 (Homo sapiens, UniProt P08684);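 note: CYP3A4 tested as one member of a cytochrome P450 panel screen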
H9c2 = experiment: cells; type: functional, cell-based; details: Rattus norvegicus, H9c2, Myocardium;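 note: confirmatory concentration-response retest of ultra-high-throughput screening hits for modulation of myocardial damage; cell death induced by hydrogen peroxide oxidative stress; compound pretreatment for 60 min then peroxide exposure for 2 h; potency is for protecting the cells against peroxide damage rather than for killing them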
H4 = experiment: Luminescence Cell-Based Dose Response HTS to Identify Activators of 5'UTR Stem-Loop Driven Prion Protein mRNA Translation in H4 Neuroglioblastoma Cells. [Related pubchem assays: 1829 (Project Summary), 1814 (Primary HTS)]; type: functional; details: Homo sapiens
[1] = Luminescence Cell-Based Dose Response HTS to Identify Activators of Luciferase Translation or Activity in H4 […] Cells. [Related pubchem assays: 1829 (Project Summary), 1814 (Primary HTS)]; type: functional
[2] = target: T1, Heat shock factor protein 1 (Mus musculus, UniProt P38532); experiment: inhibition of MG132-induced HSE-luciferase signal, confirmation, cell-based, NIH3T3, luminescence, dose retest (AID 2382); type: functional;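 note: NIH3T3 fibroblasts with HSF1-driven luciferase reporter stressed by proteasome inhibitor MG132; luminescence from HSF1-driven luciferase expression after 8 hours of MG132 stress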
T1 sequence (P38532 whole entry): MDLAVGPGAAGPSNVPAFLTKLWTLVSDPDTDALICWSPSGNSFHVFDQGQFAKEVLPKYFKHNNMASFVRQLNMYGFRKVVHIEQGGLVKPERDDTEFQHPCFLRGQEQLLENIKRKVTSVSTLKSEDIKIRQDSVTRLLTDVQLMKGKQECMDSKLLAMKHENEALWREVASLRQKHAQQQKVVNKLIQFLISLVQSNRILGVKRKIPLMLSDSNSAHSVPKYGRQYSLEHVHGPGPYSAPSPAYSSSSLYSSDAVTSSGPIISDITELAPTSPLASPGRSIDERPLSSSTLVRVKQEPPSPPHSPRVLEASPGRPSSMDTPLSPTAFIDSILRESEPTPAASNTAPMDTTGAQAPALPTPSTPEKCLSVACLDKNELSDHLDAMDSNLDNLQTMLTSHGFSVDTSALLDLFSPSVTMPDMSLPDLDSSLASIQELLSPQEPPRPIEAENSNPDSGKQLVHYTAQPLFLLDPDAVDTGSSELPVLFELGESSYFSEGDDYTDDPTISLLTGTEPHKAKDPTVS

[3] = Luminescence Cell-Based Dose Confirmation HTS to Identify Activators of 5'UTR Stem-Loop Driven Alpha-Synuclein mRNA Translation in H4 Neuroglioblastoma Cells. [Related pubchem assays: 1829 (Project Summary), 1814 (Primary HTS)]; type: functional
[4] = Shn3 3'UTR reporter inhibitors, dose response, cell-based, Clone20 osteoblasts, firefly luciferase, cherry-picked (AID 624132); type: functional;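 note: firefly luciferase luminescence from reporter carrying the Shn3 3'UTR in osteoblasts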
[5] = target: Luciferin 4-monooxygenase (Photinus pyralis, UniProt P08659); experiment: firefly luciferase enzyme inhibitors, dose response, biochemical, luminescence (AID 1891)
[6] = Luminescence Cell-Based Dose Confirmation HTS to Identify Inhibitors of Platelet Dense Granule Release. [Related pubchem assays: 1663 (Primary HTS), 1678 (Summary of Project)]; type: functional
[7] = target: T2, Microphthalmia-associated transcription factor (Homo sapiens, UniProt O75030); experiment: TRPM1 promoter luciferase signal decrease, dose response, MITF inhibitor project, cell-based, SK-MEL-5, cherry-picked, set 3 (AID 493073); type: functional
T2 sequence (O75030 whole entry): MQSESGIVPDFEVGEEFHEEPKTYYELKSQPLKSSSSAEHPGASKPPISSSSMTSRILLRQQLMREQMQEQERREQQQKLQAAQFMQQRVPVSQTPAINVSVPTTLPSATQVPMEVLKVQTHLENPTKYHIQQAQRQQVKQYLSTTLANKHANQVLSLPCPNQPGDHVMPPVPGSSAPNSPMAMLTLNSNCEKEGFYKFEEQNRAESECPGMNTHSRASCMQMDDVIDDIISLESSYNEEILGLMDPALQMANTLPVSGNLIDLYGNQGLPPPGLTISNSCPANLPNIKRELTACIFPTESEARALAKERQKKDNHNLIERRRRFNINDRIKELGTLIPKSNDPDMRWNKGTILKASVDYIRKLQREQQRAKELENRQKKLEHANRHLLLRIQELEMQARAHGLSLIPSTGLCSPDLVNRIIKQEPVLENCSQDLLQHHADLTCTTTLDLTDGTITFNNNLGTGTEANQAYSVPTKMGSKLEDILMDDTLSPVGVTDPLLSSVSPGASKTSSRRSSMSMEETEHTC

[8] = system: Streptococcus sp. 'group A'; experiment: growth inhibition of control SK(-) GAS strain, dose response, counter-screen for streptokinase expression inhibitor project, luminescence, kanamycin, BacTiterGlo, confirmation (AID 1900); type: functional, organism-based
Streptococcus = experiment: Group A Streptococcus viability loss, dose response, counter-screen for streptokinase expression inhibitor project, luminescence, BacTiterGlo (AID 1915); type: functional, organism-based;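 note: potency for reduction of bacterial viability or growth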
Streptokinase A = target: T3, Streptokinase A (Streptococcus pyogenes serotype M1, UniProt P10520); experiment: S. pyogenes streptokinase expression inhibitors, potency, dose response, plasminogen activation absorbance, OD405 (AID 1914); type: functional, Streptococcus pyogenes M1 GAS;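 note: secreted streptokinase activity via plasminogen activation per viability signal from cell pellet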
T3 sequence (P10520 whole entry): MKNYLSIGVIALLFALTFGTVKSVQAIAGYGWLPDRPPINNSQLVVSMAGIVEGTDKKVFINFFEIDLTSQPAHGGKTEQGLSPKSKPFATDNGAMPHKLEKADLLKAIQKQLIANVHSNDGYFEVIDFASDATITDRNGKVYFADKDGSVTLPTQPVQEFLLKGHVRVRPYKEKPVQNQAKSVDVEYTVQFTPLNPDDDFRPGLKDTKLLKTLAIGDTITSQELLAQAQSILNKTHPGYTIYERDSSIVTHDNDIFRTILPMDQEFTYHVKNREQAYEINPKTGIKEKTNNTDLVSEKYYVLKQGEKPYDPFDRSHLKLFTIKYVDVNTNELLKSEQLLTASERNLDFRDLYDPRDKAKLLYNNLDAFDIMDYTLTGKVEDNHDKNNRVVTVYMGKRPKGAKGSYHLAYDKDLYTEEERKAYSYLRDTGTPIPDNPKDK

Cytochrome P450 2D6 = Cytochrome P450 2D6 (Homo sapiens, UniProt P10635);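 note: CYP2D6 member of a cytochrome P450 panel assay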
[9] = inhibitors of intracellular T. cruzi replication, confirmation, NIH3T3 host cells, beta-gal luminescence (AID 2044); type: functional, cell-based;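 note: intracellular parasites grown in NIH/3T3 mouse fibroblasts as host cells; luminescent beta-galactosidase reporter signal from transgenic T. cruzi replicating inside host cells; inhibitors lower the luminescence signal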
[10] = cytotoxicity toward NIH3T3 fibroblasts, dose response, counter-screen, cell-based, ATP luminescence, mouse fibroblasts (AID 2010); type: functional;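 note: cells exposed to compound for about 90 hours before reading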
[11] = Luminescence Cell-Based Dose Response HTS to Identify Inhibitors of 5'UTR Stem-Loop Driven Prion Protein mRNA Translation in H4 Neuroglioblastoma Cells. [Related pubchem assays: 1827 (Project Summary), 1813 (Primary HTS)]; type: functional
[12] = inhibitors of SNCA 5'UTR-driven reporter translation, confirmation, H4 neuroglioma cells, luminescence (AID 1988); type: functional, cell-based
Paired box protein Pax-8 = Paired box protein Pax-8 (Homo sapiens, UniProt Q06710); experiment: inhibitors of PAX8-driven TPO luciferase reporter, dose response, RMG-I cells, cherry-pick (AID 687027); type: functional, cell-based;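 note: luciferase reporter driven by Pax8 target thyroperoxidase promoter measured by SteadyGlo luminescence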
Cytochrome P450 2C9 = Cytochrome P450 2C9 (Homo sapiens, UniProt P11712)
Cytochrome P450 2C9, sequence (P11712 whole entry): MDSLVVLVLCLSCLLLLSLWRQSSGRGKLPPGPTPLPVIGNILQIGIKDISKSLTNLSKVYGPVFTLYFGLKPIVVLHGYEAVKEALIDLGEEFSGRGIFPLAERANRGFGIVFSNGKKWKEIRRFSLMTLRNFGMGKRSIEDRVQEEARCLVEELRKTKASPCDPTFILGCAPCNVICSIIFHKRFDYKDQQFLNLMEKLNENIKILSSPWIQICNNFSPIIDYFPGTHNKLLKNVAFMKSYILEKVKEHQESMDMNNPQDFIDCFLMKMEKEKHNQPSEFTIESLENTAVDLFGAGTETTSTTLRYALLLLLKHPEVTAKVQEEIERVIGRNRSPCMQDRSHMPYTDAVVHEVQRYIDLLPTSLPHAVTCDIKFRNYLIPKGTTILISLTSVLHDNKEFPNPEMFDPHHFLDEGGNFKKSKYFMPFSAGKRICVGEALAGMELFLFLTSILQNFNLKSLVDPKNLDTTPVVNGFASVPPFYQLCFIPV

Cytochrome P450 3A4, sequence (P08684 whole entry): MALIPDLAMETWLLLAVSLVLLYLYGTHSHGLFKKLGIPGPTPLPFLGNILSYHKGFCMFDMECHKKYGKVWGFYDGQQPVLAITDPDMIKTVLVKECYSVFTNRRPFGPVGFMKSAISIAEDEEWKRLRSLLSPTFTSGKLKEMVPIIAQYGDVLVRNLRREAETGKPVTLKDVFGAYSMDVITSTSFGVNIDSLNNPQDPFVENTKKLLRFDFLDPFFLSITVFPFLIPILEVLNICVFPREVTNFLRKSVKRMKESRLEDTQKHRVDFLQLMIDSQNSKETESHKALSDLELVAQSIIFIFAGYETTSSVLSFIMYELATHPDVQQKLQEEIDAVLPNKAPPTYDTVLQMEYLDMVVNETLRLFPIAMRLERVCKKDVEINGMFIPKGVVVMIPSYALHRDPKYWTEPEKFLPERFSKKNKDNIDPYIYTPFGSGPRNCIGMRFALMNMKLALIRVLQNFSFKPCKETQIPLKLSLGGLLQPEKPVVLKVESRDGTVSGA
Luciferin 4-monooxygenase, sequence (P08659 whole entry): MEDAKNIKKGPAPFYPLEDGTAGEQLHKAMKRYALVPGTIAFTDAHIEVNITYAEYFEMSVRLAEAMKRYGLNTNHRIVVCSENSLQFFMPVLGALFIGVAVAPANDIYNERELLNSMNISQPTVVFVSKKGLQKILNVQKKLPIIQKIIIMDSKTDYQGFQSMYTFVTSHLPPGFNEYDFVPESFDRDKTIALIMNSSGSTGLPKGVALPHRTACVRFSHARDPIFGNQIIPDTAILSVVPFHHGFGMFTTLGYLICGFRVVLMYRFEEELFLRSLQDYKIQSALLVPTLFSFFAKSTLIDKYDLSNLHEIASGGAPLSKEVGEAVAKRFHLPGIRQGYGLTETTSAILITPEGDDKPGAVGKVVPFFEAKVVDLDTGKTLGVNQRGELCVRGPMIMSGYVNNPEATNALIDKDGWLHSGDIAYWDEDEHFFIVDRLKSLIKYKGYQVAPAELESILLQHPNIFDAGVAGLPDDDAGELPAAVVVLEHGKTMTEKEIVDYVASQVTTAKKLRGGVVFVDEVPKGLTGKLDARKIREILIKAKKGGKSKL
Paired box protein Pax-8, sequence (Q06710 whole entry): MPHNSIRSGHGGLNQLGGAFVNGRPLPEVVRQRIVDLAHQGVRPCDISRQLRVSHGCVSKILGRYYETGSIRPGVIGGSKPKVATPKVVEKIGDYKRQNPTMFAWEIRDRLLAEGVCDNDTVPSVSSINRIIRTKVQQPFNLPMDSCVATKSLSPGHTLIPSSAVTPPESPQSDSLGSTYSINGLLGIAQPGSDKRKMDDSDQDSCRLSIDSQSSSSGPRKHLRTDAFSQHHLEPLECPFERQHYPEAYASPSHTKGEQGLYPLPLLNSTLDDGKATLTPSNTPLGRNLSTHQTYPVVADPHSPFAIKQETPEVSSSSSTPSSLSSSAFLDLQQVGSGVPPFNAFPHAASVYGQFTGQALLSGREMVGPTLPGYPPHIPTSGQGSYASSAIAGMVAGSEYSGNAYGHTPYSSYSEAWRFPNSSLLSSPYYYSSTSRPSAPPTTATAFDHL
Cytochrome P450 2D6, sequence (P10635 whole entry): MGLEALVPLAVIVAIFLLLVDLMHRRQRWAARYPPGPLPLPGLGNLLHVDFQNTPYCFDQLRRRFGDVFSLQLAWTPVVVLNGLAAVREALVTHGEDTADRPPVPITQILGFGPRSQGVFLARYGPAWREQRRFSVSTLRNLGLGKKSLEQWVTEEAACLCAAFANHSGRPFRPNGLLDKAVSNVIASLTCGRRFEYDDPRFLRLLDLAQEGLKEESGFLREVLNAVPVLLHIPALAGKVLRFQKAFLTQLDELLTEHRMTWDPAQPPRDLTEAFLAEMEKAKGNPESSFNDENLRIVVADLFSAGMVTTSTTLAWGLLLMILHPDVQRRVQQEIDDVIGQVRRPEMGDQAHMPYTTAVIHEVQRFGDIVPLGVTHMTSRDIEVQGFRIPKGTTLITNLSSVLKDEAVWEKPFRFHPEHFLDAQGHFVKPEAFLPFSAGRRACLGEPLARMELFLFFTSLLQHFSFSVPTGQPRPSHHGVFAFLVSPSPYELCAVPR

COc1ccc(OC)c(C(=O)/C=C/c2cccnc2)c1
CC50 (Vero): 17 µM (active)

Nc1ncnc(N(c2ccccc2)C2CCCCC2)c1[N+](=O)[O-]
AC50 (Cytochrome P450 3A4): 6.31 µM (inconclusive)

COc1cccc(-c2nn3c(-c4ccco4)nnc3s2)c1
IC50 (H9c2): > 79 µM (inactive)

CC1=Nc2cc(C(=O)NCC3CCCO3)ccc2Sc2ccc(Br)cc21 (centres undefined)
EC50 (H4): 17.8 µM (active)
EC50 [1]: > 120 µM (not active)
EC50 [2]: > 195 µM (not active)
EC50 [3]: > 120 µM (not active)

Cn1cc(CN(CCO)Cc2cccs2)c(-c2cccc(Cl)c2)n1
AC50 [4]: 3.25 µM (active)
EC50 [5]: > 112 µM (not active)
EC50 [6]: > 112 µM (not active)

COc1ccc(CCNC(=O)C(=O)NCC2CCCN2S(=O)(=O)c2ccccc2)cc1OC (centres undefined)
IC50 (H9c2): > 79 µM (inactive)

CCOc1cccc2c1OC(c1cc(OC)c(OC)c(OC)c1)N1N=C(c3ccc(C)o3)CC21 (centres undefined)
EC50 (H4): 8.82 µM (active)
EC50 [1]: 28.3 µM (active)
EC50 [3]: 32 µM (active)

c1ccc(C[n+]2cccc3c4ccccc4ccc32)cc1
AC50 [7]: 3.41 µM (active)

CN1CCN(CC(=O)N(C)c2nc(-c3ccccc3)cs2)CC1
EC50 [1]: 1.22 µM (active)
EC50 [3]: 1.12 µM (active)

COc1ccc(/C=C/C(=O)NC(=S)NNC(=O)[C@H]2C[C@@H]2c2ccccc2)cc1OC
EC50 [8]: 0.57 µM (active)
CC50 (Vero): > 25 µM (active)
EC50 (Streptococcus): 20.4 µM (active)
EC50 (Streptokinase A): > 150 µM (not active)

O=C(c1ccco1)N1CCC2(CCCN(Cc3ccccc3)C2)CC1
AC50 (Cytochrome P450 3A4): 12.6 µM (inconclusive)

COc1ccccc1-c1nc(Nc2ccncc2)c2ccccc2n1
AC50 (Cytochrome P450 2D6): 25.1 µM (inconclusive)
AC50 (Cytochrome P450 3A4): 3.16 µM (inconclusive)

O=C1NC(c2cccs2)Nc2ccccc21 (centres undefined)
IC50 (H9c2): 18.2 µM (active)

CCOC(=O)c1cc(-c2ccccc2)nn1Cc1cc(CC)no1
EC50 (H4): 89.1 µM (active)
EC50 [1]: 7.3 µM (active)
EC50 [3]: 12.4 µM (active)

COc1cc2cc3c4cc(OC)c(OC)cc4cc[n+]3c(C)c2cc1OC
AC50 (Cytochrome P450 3A4): 10 µM (inconclusive)

COc1cc(OC)cc(C(=O)Nc2ccc(-c3nc4ccccc4o3)cc2)c1
EC50 [9]: 1.06 µM (active)
EC50 [10]: > 16 µM (not active)
IC50 (H9c2): > 79 µM (inactive)

CCOC(=O)CCCc1c[nH]c2ccccc12
AC50 (Cytochrome P450 3A4): 31.6 µM (inconclusive)

COCCn1c(=O)cnc2cnc(Oc3ccc(OC)cc3)nc21
AC50 (Cytochrome P450 3A4): 15.8 µM (inconclusive)

COC(=O)c1ccccc1NC(=O)c1ccc2nccnc2c1
IC50 (H9c2): 13.3 µM (active)

Cc1ccc(C(=O)N/C(=C\c2ccc(-c3cccc([N+](=O)[O-])c3)o2)C(=O)NCCCN2CCOCC2)cc1
CC50 (Vero): > 25 µM (active)

Cc1nn(C)c(C)c1/C=C(/C(=O)C(C)(C)C)n1cncn1
EC50 [11]: > 120 µM (not active)
EC50 [12]: > 120 µM (not active)

COCCn1ccc2c(OCC(=O)Nc3ccccc3OC)cccc2c1=O
IC50 (H9c2): > 79 µM (inactive)

O=C(Cn1ncc(N2CCOCC2)c(Br)c1=O)c1ccc(Cl)cc1
EC50 (H4): 17 µM (active)
EC50 [1]: 7.93 µM (active)
EC50 [3]: > 120 µM (not active)

CCCN1CCC(=O)N([C@H](CSc2ccc(C)cc2)c2ccccc2)CC1
EC50 (H4): 7.04 µM (active)
EC50 [1]: 5.58 µM (active)
EC50 [3]: 8.36 µM (active)

CCN1CCc2c(sc(NC(=O)c3ccc(S(=O)(=O)N4CCCCCC4)cc3)c2C(=O)NC)C1
AC50 [7]: 16.6 µM (active)

CN1N=C(C(=O)N2CCc3c([nH]c4ccccc34)C2c2ccccc2Cl)CCC1=O (centres undefined)
EC50 (H4): 9.56 µM (active)
EC50 [1]: 10.8 µM (active)
EC50 [3]: 13.2 µM (active)

COc1ccc(N(Cc2cc3cc(OC)ccc3nc2O)C(=O)c2cccnc2)cc1
IC50 (H9c2): > 79 µM (inactive)

CC(OC(=O)Cn1[nH]c(=O)c2ccccc2c1=O)C(=O)Nc1cccc(Cl)c1 (centres undefined)
IC50 (H9c2): > 79 µM (inactive)

CCOC(=O)CC1(C)NC(C(=O)O)C(C)(C)S1 (centres undefined)
CC50 (Vero): > 25 µM (active)

O=C1NC(=S)NC(=O)C1=Cc1c[nH]c2ccccc12
CC50 (Vero): > 25 µM (active)

O=C(CCCN1C(=O)/C(=C/c2ccccc2OC(F)F)SC1=S)Nc1cccnc1
CC50 (Vero): 8.53 µM (active)
AC50 (Paired box protein Pax-8): 7.19 µM (active)

O=C(NCC1CCCO1)c1onc(CSc2ccccc2F)c1C(=O)O (centres undefined)
AC50 (Cytochrome P450 2C9): 6.31 µM (inconclusive)
AC50 (Cytochrome P450 3A4): 25.1 µM (inconclusive)

COc1ccccc1-c1cc(NC=O)c2ncc(-c3cccc(C(C)=O)c3)n2c1
IC50 (H9c2): 10 µM (active)

C/C(=N\NC(=S)Nc1ccc(F)cc1)C1CC1
AC50 (Cytochrome P450 3A4): 14.1 µM (inconclusive)

C[C@@H]1CCCCO[C@H](CN(C)S(=O)(=O)c2cccs2)[C@H](C)CN([C@@H](C)CO)C(=O)c2cc(NC(=O)CCC(F)(F)F)ccc2O1
AC50 (Paired box protein Pax-8): 27.6 µM (active)

Oc1c(/C=N/c2cccc(C(F)(F)F)c2)cnn1-c1cccc(Cl)n1
AC50 (Cytochrome P450 2C9): 10 µM (inconclusive)
AC50 (Cytochrome P450 3A4): 25.1 µM (inconclusive)

O=C1CN2Cc3c(ccc(Cl)c3Cl)N=C2N1 [ANAGRELIDE HYDROCHLORIDE]
EC50 [5]: > 112 µM (not active)
EC50 [6]: 0.722 µM (active)
